Results on 22 molecules are retold here after patent publication US9050346B2, “Bromodomain inhibitors” (AbbVie Inc., priority 2013, dated 2015).

One test has as its target T1, BRD4 (BDI_K57-E168) (Homo sapiens, UniProt O60885).
T1 construct: BD1: amino acids K57-E168; made in house
The test is described as follows: TR-FRET bromodomain binding assay, BRD4 first bromodomain. The following applies: His-tagged BD1, 100 nM Alexa647 probe; Ki calculated from IC50; dilution protocol A-G. Here is the method:
(§1) A time-resolved fluorescence resonance energy transfer (TR-FRET) assay was used to determine the affinities of compounds of the Examples listed in Table 1 for each bromodomain of BRD4. His-tagged first (BD1: amino acids K57-E168) and second (BD2: amino acids E352-E168) bromodomains of BRD4 were expressed and purified. An Alexa647-labeled BET-inhibitor was used as the fluorescent probe in the assay.
(§2) Compound dilution series were prepared in DMSO via an approximately 3-fold serial dilution from one of the following: • Assay method A: 2.5 mM-800 nM • Assay method B: 2.5 mM-797 nM • Assay method C: 1250 μM-21 nM • Assay method D: 500 μM-8.5 nM • Assay method E: 0.47 mM to 7.8 nM • Assay method F: 250 μM-4.2 nM • Assay method G: 0.047 mM to 0.78 nM or 5-fold serial dilution from Assay Method A or Assay Method B.
(§3) For Assay methods A, C, D, and F: Compounds were then diluted 6:100 in assay buffer (20 mM Sodium Phosphate, pH 6.0, 50 mM NaCl, 1 mM Ethylenediaminetetraacetic acid, 0.01% Triton X-100, 1 mM DL-Dithiothreitol) to yield 3× working solutions. Six microliters (μL) of the working solution was then transferred to white, low-volume assay plates (Costar #3673). A 1.5× assay mixture containing His-tagged bromodomain, Europium-conjugated anti-His antibody (Invitrogen PV5596) and the Alexa-647-conjugated probe molecule was also prepared. Twelve μL of this solution were added to the assay plate to reach a final volume of 18 μL.
(§4) For Assay methods B, E, and G: Compound dilutions were added directly into white, low-volume assay plates (Perkin Elmer Proxiplate 384 Plus#6008280) using a Labcyte Echo in conjunction with Labcyte Access and Thermo Multidrop CombinL robotics. Compounds were then suspended in eight microliters (μL) of assay buffer (20 mM Sodium Phosphate, pH 6.0, 50 mM NaCl, 1 mM Ethylenediaminetetraacetic acid disodium salt dihydrate, 0.01% Triton X-100, 1 mM DL-Dithiothreitol) containing His-tagged bromodomain, Europium-conjugated anti-His antibody (Invitrogen PV5596) and Alexa-647-conjugated probe.
(§5) The final concentration of 1× assay mixture for assay methods A, B, C, D, E, F, and G contains 2% DMSO, 8 nM His-tagged bromodomain, 1 nM Europium-conjugated anti-His-tag antibody and 100 nM or 30 nM probe (for BDI or BDII, respectively) and compound concentration in the range of: 50 μM-16 nM for method A, 49.02 μM-15.63 nM for method B, 25 μM-423 pM for method C, 10 μM-169 pM for method D, 9.19 μM-150 pM for method E, 5 μM-85 pM for method F, and 0.92 μM-15 pM for method G.
(§6) After a one-hour equilibration at room temperature, TR-FRET ratios were determined using an Envision multilabel plate reader (Ex 340, Em 495/520).
(§7) TR-FRET data were normalized to the means of 24 no-compound controls (“high”) and 8 controls containing 1 μM un-labeled probe (“low”). Percent inhibition was plotted as a function of compound concentration and the data were fit with the 4 parameter logistic equation to obtain IC50s Inhibition constants (Ki) were calculated from the IC50s, probe Kd and probe concentration. Typical Z′ values were between 0.65 and 0.75. The minimum significant ratio was determined to evaluate assay reproducibility (Eastwood et al., (2006) J Biomol Screen, 11: 253-261). The MSR was determined to be 2.03 for BDI and 1.93 for BDII, and a moving MSR (last six run MSR overtime) for both BDI and BDII was typically <3.

The next test deals with T2, BRD4 (BDII_E352-M457) (Homo sapiens, UniProt O60885).
T2 construct: made in house
The test is described as follows: TR-FRET bromodomain binding assay, BRD4 second bromodomain. Here is the method:
as §1, §2, §3, §4, §5, §6, §7
On the technique in general: Time-resolved FRET reads energy transfer from a long-lived donor to a nearby acceptor.

In the case of `Cc1[nH]c(-c2ccccc2Oc2ccccc2)c2cn[nH]c(=O)c12` [Example 72, 7-methyl-5-(2-phenoxyphenyl)-2,6-dihydro-1H-pyrrolo[3,4-d]pyridazin-1-one], the inhibition constant Ki is 0.00763 µM at BRD4 (BDI_K57-E168) and 0.0258 µM on BRD4 (BDII_E352-M457).

Turning to `Cc1[nH]c(-c2cc(N)ccc2Oc2ccccc2)c2nc[nH]c(=O)c12` [Example 90, 7-(5-amino-2-phenoxyphenyl)-5-methyl-3,6-dihydro-4H-pyrrolo[3,4-d]pyrimidin-4-one], the Ki at BRD4 (BDI_K57-E168) was 0.108 µM; on BRD4 (BDII_E352-M457), 0.791 µM.

Regarding `Cc1[nH]c(-c2ccccc2Oc2ccccc2)c2c1C(=O)NCC2` [Example 92, 3-methyl-1-(2-phenoxyphenyl)-2,5,6,7-tetrahydro-4H-pyrrolo[3,4-c]pyridin-4-one], the Ki on BRD4 (BDI_K57-E168) was 0.0141 µM; at BRD4 (BDII_E352-M457) it was 0.047 µM.

Turning to `Cc1[nH]c(-c2cc(NS(C)(=O)=O)ccc2Oc2ccccc2)c2c1C(=O)NCC2` [Example 95, N-[3-(3-methyl-4-oxo-4,5,6,7-tetrahydro-2H-pyrrolo[3,4-c]pyridin-1-yl)-4-phenoxyphenyl]methanesulfonamide], the Ki on BRD4 (BDI_K57-E168) is 0.00367 µM; on BRD4 (BDII_E352-M457), 0.0204 µM.

In the case of `Cc1[nH]c(-c2ccccc2Oc2ccccc2)c2cc(-c3nc(-c4ccccc4)no3)[nH]c(=O)c12` [Example 46, 3-methyl-1-(2-phenoxyphenyl)-6-(3-phenyl-1,2,4-oxadiazol-5-yl)-2H-pyrrolo[3,4-c]pyridin-4(5H)-one], the Ki at BRD4 (BDI_K57-E168) was 1.25 µM; at BRD4 (BDII_E352-M457), 1.22 µM.

For the molecule `Cc1[nH]c(-c2ccccc2Oc2ccccc2)c2cc(-c3nc(-c4ccc(N(C)C)cc4)no3)[nH]c(=O)c12` [Example 62, 6-(3-(4-(dimethylamino)phenyl)-1,2,4-oxadiazol-5-yl)-3-methyl-1-(2-phenoxyphenyl)-2H-pyrrolo[3,4-c]pyridin-4(5H)-one], the Ki is more than 2.38 µM at BRD4 (BDI_K57-E168) and more than 4.08 µM on BRD4 (BDII_E352-M457).

As to `CCOC(=O)c1cc2c(-c3cc([N+](=O)[O-])ccc3Oc3ccc(F)cc3F)[nH]c(C)c2c(=O)[nH]1` [Example 33, ethyl 1-[2-(2,4-difluorophenoxy)-5-nitrophenyl]-3-methyl-4-oxo-4,5-dihydro-2H-pyrrolo[3,4-c]pyridine-6-carboxylate], the results for the Ki on BRD4 (BDI_K57-E168) and on BRD4 (BDII_E352-M457) were 0.499 µM and 0.759 µM, respectively.

Turning to `Cc1[nH]c(-c2ccccc2Oc2ccccc2)c2cc(C(=O)O)[nH]c(=O)c12` [Example 12, 3-methyl-4-oxo-1-(2-phenoxyphenyl)-4,5-dihydro-2H-pyrrolo[3,4-c]pyridine-6-carboxylic acid], the Ki is 0.0826 µM at BRD4 (BDI_K57-E168) and 0.546 µM on BRD4 (BDII_E352-M457).

Regarding `Cc1[nH]c(-c2ccccc2Oc2ccccc2)c2cc[nH]c(=O)c12` [Example 14, 3-methyl-1-(2-phenoxyphenyl)-2H-pyrrolo[3,4-c]pyridin-4(5H)-one], the values for the Ki at BRD4 (BDI_K57-E168) and at BRD4 (BDII_E352-M457) were 0.0314 µM and 0.0676 µM, respectively.

In the case of `Cc1ccc(S(=O)(=O)Nc2ccccc2-c2[nH]c(C)c3c(=O)[nH]ncc23)cc1` [Example 77, 4-methyl-N-[2-(7-methyl-1-oxo-2,6-dihydro-1H-pyrrolo[3,4-d]pyridazin-5-yl)phenyl]benzenesulfonamide], the Ki is more than 13 µM at BRD4 (BDI_K57-E168) and more than 22.2 µM at BRD4 (BDII_E352-M457).

In the case of `CCOC(=O)c1cc2c(-c3cc(Cl)ccc3Oc3ccc(F)cc3F)[nH]c(C)c2c(=O)[nH]1` [Example 24, ethyl 1-[5-chloro-2-(2,4-difluorophenoxy)phenyl]-3-methyl-4-oxo-4,5-dihydro-2H-pyrrolo[3,4-c]pyridine-6-carboxylate], the results for the Ki at BRD4 (BDI_K57-E168) and at BRD4 (BDII_E352-M457) were 0.0922 µM and 2.75 µM, respectively.

With `Cc1[nH]c(-c2cc(S(C)(=O)=O)ccc2Oc2ccc(F)cc2F)c2cc(C(=O)O)[nH]c(=O)c12` [Example 40, 1-[2-(2,4-difluorophenoxy)-5-(methylsulfonyl)phenyl]-3-methyl-4-oxo-4,5-dihydro-2H-pyrrolo[3,4-c]pyridine-6-carboxylic acid], the Ki at BRD4 (BDI_K57-E168) was 0.358 µM; on BRD4 (BDII_E352-M457), 1.72 µM.

Take `Cc1[nH]c(-c2cc(NS(C)(=O)=O)ccc2Oc2ccccc2)c2cn[nH]c(=O)c12` [Example 73, N-[3-(7-methyl-1-oxo-2,6-dihydro-1H-pyrrolo[3,4-d]pyridazin-5-yl)-4-phenoxyphenyl]methanesulfonamide]: the figures for the Ki at BRD4 (BDI_K57-E168) and at BRD4 (BDII_E352-M457) were 0.00149 µM and 0.0085 µM, respectively.

With `CCCc1noc(-c2cc3c(-c4ccccc4Oc4ccccc4)[nH]c(C)c3c(=O)[nH]2)n1` [Example 47, 3-methyl-1-(2-phenoxyphenyl)-6-(3-propyl-1,2,4-oxadiazol-5-yl)-2H-pyrrolo[3,4-c]pyridin-4(5H)-one], the Ki is 0.519 µM on BRD4 (BDI_K57-E168) and 2.52 µM at BRD4 (BDII_E352-M457).

Regarding `Cc1[nH]c(-c2ccccc2)c2c1C(=O)NCC2` [Example 100, 3-methyl-1-phenyl-2,5,6,7-tetrahydro-4H-pyrrolo[3,4-c]pyridin-4-one], the Ki on BRD4 (BDI_K57-E168) was 2.25 µM; on BRD4 (BDII_E352-M457), 2.92 µM.

Turning to `Cc1[nH]c(-c2cc(S(C)(=O)=O)ccc2F)c2c1C(=O)NCC2` [Example 99, 1-[2-fluoro-5-(methylsulfonyl)phenyl]-3-methyl-2,5,6,7-tetrahydro-4H-pyrrolo[3,4-c]pyridin-4-one], the Ki at BRD4 (BDI_K57-E168) was 1.62 µM; on BRD4 (BDII_E352-M457), more than 4.44 µM.

Consider `Cc1[nH]c(-c2cc(NS(C)(=O)=O)ccc2Oc2ccc(F)cc2F)c2c1C(=O)NCC2` [Example 93, N-[4-(2,4-difluorophenoxy)-3-(3-methyl-4-oxo-4,5,6,7-tetrahydro-2H-pyrrolo[3,4-c]pyridin-1-yl)phenyl]methanesulfonamide], for which the Ki at BRD4 (BDI_K57-E168) was 0.014 µM; on BRD4 (BDII_E352-M457), 0.138 µM.

As for `Cc1[nH]c(-c2cc(NS(C)(=O)=O)ccc2Oc2ccccc2)c2nc[nH]c(=O)c12` [Example 91, N-[3-(5-methyl-4-oxo-4,6-dihydro-3H-pyrrolo[3,4-d]pyrimidin-7-yl)-4-phenoxyphenyl]methanesulfonamide], the figures for the Ki at BRD4 (BDI_K57-E168) and at BRD4 (BDII_E352-M457) were 0.0226 µM and 0.117 µM, respectively.

As for `Cc1[nH]c(-c2cc(CN3CCN(C)CC3)ccc2Oc2ccc(F)cc2F)c2c1C(=O)NCC2` [Example 102, 1-{2-(2,4-difluorophenoxy)-5-[(4-methylpiperazin-1-yl)methyl]phenyl}-3-methyl-2,5,6,7-tetrahydro-4H-pyrrolo[3,4-c]pyridin-4-one], the figures for the Ki at BRD4 (BDI_K57-E168) and on BRD4 (BDII_E352-M457) were 1.56 µM and 3.12 µM, respectively.

As for `Cc1[nH]c(-c2ccccc2Oc2ccccc2)c2nc(C(=O)O)[nH]c(=O)c12` [Example 86, 5-methyl-4-oxo-7-(2-phenoxyphenyl)-4,6-dihydro-3H-pyrrolo[3,4-d]pyrimidine-2-carboxylic acid], the values for the inhibition constant (Ki) on BRD4 (BDI_K57-E168) and at BRD4 (BDII_E352-M457) were 1.37 µM and 12.3 µM, respectively.

`Cc1[nH]c(-c2ccccc2Oc2ccc(F)cc2F)c2cc(C(=O)O)[nH]c(=O)c12` [Example 22, 1-[2-(2,4-difluorophenoxy)phenyl]-3-methyl-4-oxo-4,5-dihydro-2H-pyrrolo[3,4-c]pyridine-6-carboxylic acid]: the Ki was 0.225 µM on BRD4 (BDI_K57-E168) and 2.79 µM at BRD4 (BDII_E352-M457).

Take `Cc1[nH]c(-c2ccccc2Oc2ccccc2)c2cc(C(=O)N(C)C)[nH]c(=O)c12` [Example 41, N,N,3-trimethyl-4-oxo-1-(2-phenoxyphenyl)-4,5-dihydro-2H-pyrrolo[3,4-c]pyridine-6-carboxamide]: the values for the Ki at BRD4 (BDI_K57-E168) and on BRD4 (BDII_E352-M457) were 0.141 µM and 0.944 µM, respectively.

By Ki is commonly meant a dissociation constant, usually derived from enzyme kinetics or from competition with a known ligand.
